# Active and inactive are the calls of the source. How the calls were made is not given here.
# Test system: rodent lifetime carcinogenesis bioassay, tumor incidence TD50
# Assay: chronic cancer bioassays in animals – CPDB, compiled studies (AID 1745844)
structure (smiles),measurement,setting,value
Cc1cccc(N)c1,TD50,"mouse, strain CD-1 HaM/ICR, females, in feed, site: any site (literature study), lesion: several types, types named in the paper, dosed 77 weeks, study length 81 weeks",1950 mg/kg/day (inactive)
same,carcinogen call,"mouse, strain CD-1 HaM/ICR, females, in feed, site: any site (literature study), lesion: several types, types named in the paper, dosed 77 weeks, study length 90 weeks",negative (inactive)
same,carcinogen call,"mouse, strain CD-1 HaM/ICR, females, in feed, site: liver, lesion: several types, types named in the paper, dosed 77 weeks, study length 81 weeks",negative (inactive)
same,TD50,"mouse, strain CD-1 HaM/ICR, females, in feed, site: liver, lesion: several types, types named in the paper, dosed 77 weeks, study length 90 weeks",9990 mg/kg/day (inactive)
same,carcinogen call,"mouse, strain CD-1 HaM/ICR, females, in feed, site: lung, lesion: several types, types named in the paper, dosed 77 weeks, study length 81 weeks",negative (inactive)
same,carcinogen call,"mouse, strain CD-1 HaM/ICR, females, in feed, site: lung, lesion: several types, types named in the paper, dosed 77 weeks, study length 90 weeks",negative (inactive)
same,TD50,"mouse, strain CD-1 HaM/ICR, males, in feed, site: liver, lesion: hepatoma, dosed 77 weeks, study length 90 weeks",1440 mg/kg/day
same,TD50,"mouse, strain CD-1 HaM/ICR, males, in feed, site: liver, lesion: several types, types named in the paper, dosed 77 weeks, study length 90 weeks",6770 mg/kg/day
same,carcinogen call,"mouse, strain CD-1 HaM/ICR, males, in feed, site: lung, lesion: several types, types named in the paper, dosed 77 weeks, study length 90 weeks",negative (inactive)
same,TD50,"rat, strain Charles River CD (Sprague-Dawley), males, in feed, site: any site (literature study), lesion: several types, types named in the paper, dosed 77 weeks, study length 98 weeks",98.4 mg/kg/day (inactive)
same,carcinogen call,"rat, strain Charles River CD (Sprague-Dawley), males, in feed, site: liver, lesion: several types, types named in the paper, dosed 77 weeks, study length 98 weeks",negative (inactive)
CN(CC(O)CO)N=O (stereo not given),TD50,"hamster, strain Syrian Golden, females, by gavage, site: any site (literature study), lesion: several types, types named in the paper, dosed 41 weeks, study length 81 weeks",0.509 mg/kg/day
same,TD50,"hamster, strain Syrian Golden, females, by gavage, site: liver, lesion: all vascular tumors, dosed 41 weeks, study length 81 weeks",12.7 mg/kg/day (inactive)
same,TD50,"hamster, strain Syrian Golden, females, by gavage, site: nasal mucosa, lesion: carcinoma, dosed 41 weeks, study length 81 weeks",1.51 mg/kg/day
same,TD50,"hamster, strain Syrian Golden, females, by gavage, site: nasal mucosa, lesion: several types, types named in the paper, dosed 41 weeks, study length 81 weeks",0.94 mg/kg/day
same,TD50,"rat, strain Fischer 344, females, in drinking water, site: esophagus, lesion: several types, types named in the paper, dosed 40 weeks, study length 110 weeks",1.48 mg/kg/day
same,TD50,"rat, strain Fischer 344, females, in drinking water, site: liver, lesion: hepatocellular carcinoma, dosed 40 weeks, study length 110 weeks",3.13 mg/kg/day
same,TD50,"rat, strain Fischer 344, females, in drinking water, site: liver, lesion: neoplastic nodule, dosed 40 weeks, study length 110 weeks",1.01 mg/kg/day
same,TD50,"rat, strain Fischer 344, females, in drinking water, site: liver, lesion: several types, types named in the paper, dosed 40 weeks, study length 110 weeks",0.67 mg/kg/day
same,TD50,"rat, strain Fischer 344, females, in drinking water, site: lung, lesion: several types, types named in the paper, dosed 40 weeks, study length 110 weeks",0.646 mg/kg/day
same,TD50,"rat, strain Fischer 344, females, in drinking water, site: nasal cavity, lesion: several types, types named in the paper, dosed 40 weeks, study length 110 weeks",1.48 mg/kg/day
NNC(=O)c1cccnc1,carcinogen call,"mouse, strain Swiss albino, females, in drinking water, site: liver, lesion: angioma, dosed 102 weeks, study length 102 weeks",negative (inactive)
same,carcinogen call,"mouse, strain Swiss albino, females, in drinking water, site: liver, lesion: angiosarcoma, dosed 102 weeks, study length 102 weeks",negative (inactive)
same,TD50,"mouse, strain Swiss albino, females, in drinking water, site: lung, lesion: adenocarcinoma, dosed 102 weeks, study length 102 weeks",511 mg/kg/day
same,TD50,"mouse, strain Swiss albino, females, in drinking water, site: lung, lesion: adenoma, dosed 102 weeks, study length 102 weeks",181 mg/kg/day
same,TD50,"mouse, strain Swiss albino, females, in drinking water, site: lung, lesion: several types, types named in the paper, dosed 102 weeks, study length 102 weeks",145 mg/kg/day
same,carcinogen call,"mouse, strain Swiss albino, males, in drinking water, site: liver, lesion: angioma, dosed 101 weeks, study length 101 weeks",negative (inactive)
same,carcinogen call,"mouse, strain Swiss albino, males, in drinking water, site: liver, lesion: angiosarcoma, dosed 101 weeks, study length 101 weeks",negative (inactive)
same,TD50,"mouse, strain Swiss albino, males, in drinking water, site: liver, lesion: hepatoma, dosed 101 weeks, study length 101 weeks",1410 mg/kg/day (inactive)
same,TD50,"mouse, strain Swiss albino, males, in drinking water, site: lung, lesion: adenoma, dosed 101 weeks, study length 101 weeks",428 mg/kg/day
same,TD50,"mouse, strain Swiss albino, males, in drinking water, site: lung, lesion: several types, types named in the paper, dosed 101 weeks, study length 101 weeks",528 mg/kg/day
OCN(CO)c1nc(N(CO)CO)nc(N(CO)CO)n1,TD50,"rat, strain Sprague-Dawley, females, in feed, site: any site (literature study), lesion: several types, types named in the paper, dosed 44 weeks, study length 66 weeks",6.82 mg/kg/day
same,TD50,"rat, strain Sprague-Dawley, females, in feed, site: kidney/pelvis, lesion: transitional-cell carcinoma, dosed 44 weeks, study length 66 weeks",33.6 mg/kg/day
same,TD50,"rat, strain Sprague-Dawley, females, in feed, site: mammary gland, lesion: adenocarcinoma, dosed 44 weeks, study length 66 weeks",10.2 mg/kg/day
same,TD50,"rat, strain Sprague-Dawley, females, in feed, site: mammary gland, lesion: several types, types named in the paper, dosed 44 weeks, study length 66 weeks",11.9 mg/kg/day

# From PubChem BioAssay AID1745844 (Carcinogenic Potency Database (CPDB), 2022)
